pIC50: −log10 of the molar value.
Key:
Assay type in all cases: biochemical
[1] = target: T1, c-Src kinase (human) (Homo sapiens, UniProt P12931); assay: c-Src Kinase Assay; settings: for pIC50: human c-Src, 5 μM ATP; for inhibition at 1.6 µM: test concentration (2) 1.6 μM, read-out: c-SRC percent inhibition
T1 construct: purchased Upstate Biotechnology, Lake Placid, N.Y
Protocol: […] a 10× kinase buffer (80 mM MOPS at pH 7.0, 2 mM EDTA and 100 mM Magnesium Chloride), ATP (5 μM final from a 10 mM stock), a Cdc2 peptide KVEKIGEGTYGVVYK (100 μM final from a 2.5 mM stock), γ-^33P ATP (10 μCi/μL stock) and water (20 μL/well) was added to each well of a Streptavidin Flashplate.
Test compound in 100% DMSO (0.5 μL) was added to the appropriate wells. Diluted c-Src kinase (human) (Upstate Biotechnology, Lake Placid, N.Y.) (diluted in a buffer consisting of 20 mM MOPS at pH 7.0, 1 mM EDTA, β-mercaptoethanol (0.1%), Brij-35 (0.01%), glycerol (5%), and 1 mg/mL bovine serum albumin) (2.5 μL) was added to the wells to initiate the reactions. The reaction plates were incubated at 30° C. for 40 min. The reaction was terminated by the addition of a 3% phosphoric acid solution (5 μL). The reaction product (10 μL) was spotted onto a P30 filtermat and washed for 5 minutes in phosphoric acid (75 mM). The wash sequence was repeated two more times, followed with one final wash in methanol. The plates were then dried, sealed and read on the TopCount scintillation counter after adding 30 μL scintillation fluid.
The percent inhibitions and IC50 values were derived according to the procedure described in Example 52. For those compounds without an IC50, the percent inhibition results are shown at a test concentration of ^(1)1 μM or ^(2)1.6 μM.

[2] = target: T2, EGFR (Homo sapiens, UniProt P00533); assay: EGFR Kinase Assay (GST-EGFR, 33P-ATP, Streptavidin Flashplate); settings: for pIC50: GST-EGFR intracellular portion, 5 μM ATP; for inhibition at 2 µM: test concentration of 2 μM, read-out: EGFR percent inhibition
T2 construct: started at nucleotide 2189 (corresponding to amino acid 667) and ended at the termination codon; made in house; host or cells: Sf9 insect cells (baculovirus)
T2 sequence (P00533 667-1210 limits assumed): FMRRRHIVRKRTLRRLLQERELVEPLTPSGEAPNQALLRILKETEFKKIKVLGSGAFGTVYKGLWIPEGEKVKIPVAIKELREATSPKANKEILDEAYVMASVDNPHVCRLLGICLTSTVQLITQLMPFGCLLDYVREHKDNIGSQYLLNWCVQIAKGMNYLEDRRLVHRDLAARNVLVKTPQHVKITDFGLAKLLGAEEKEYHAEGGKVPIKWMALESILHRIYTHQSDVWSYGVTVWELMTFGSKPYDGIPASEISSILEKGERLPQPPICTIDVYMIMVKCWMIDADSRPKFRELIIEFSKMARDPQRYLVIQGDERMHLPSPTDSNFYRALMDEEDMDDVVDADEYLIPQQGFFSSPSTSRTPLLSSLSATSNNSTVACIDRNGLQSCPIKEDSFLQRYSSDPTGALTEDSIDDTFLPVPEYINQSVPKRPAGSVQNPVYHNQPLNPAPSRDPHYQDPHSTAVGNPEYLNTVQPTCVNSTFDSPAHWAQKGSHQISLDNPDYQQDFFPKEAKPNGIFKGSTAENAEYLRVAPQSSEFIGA
Text: The EGFR kinase used was a fusion of Glutathione-S-Transferase (GST) and a PCR amplified intracellular portion of EGFR (NM_005228). The intracellular portion of EGFR started at nucleotide 2189 (corresponding to amino acid 667) and ended at the termination codon. The portion was PCR amplified with primers that added the lambda attB sequences to each end, recombined into an entry vector, then into a GST destination vector (as described in Gateway Technologies Manual by Invitrogen Corporation, Carlsbad, Calif.).
The destination vector was recombined in the DH10BAC strain of bacteria to produce a bacmid. The bacmid was transfected into Sf 9 cells and the supernatant containing the baculovirus was collected. The GSTEGFR protein was purified using large cultures of Sf 9 cells infected with stock virus. After an appropriate period of time, the cells were collected and lysed. The GSTEGFR was then purified from the lysate on Glutathione-Sepharose columns (as described by Amersham Biosciences, Buckinghamshire, United Kingdom).
The EGFR substrate was prepared by biotinylating polyGluTyr (128 mg) (Sigma, St. Louis, Mo.) in a 1×PBS buffer incubated together with a 12-fold molar excess of Sulfo-NHS-LC-Biotin on ice for at least 2 hrs. The free biotin was separated from the biotinylated polyGluTyr on a gel filtration column.
A mixture of a 10× kinase buffer (500 mM Tris at pH 8.0, 100 mM Magnesium Chloride and 1 mM Sodium Vanadate), DTT (1 mM final from 500 mM stock), ATP (5 μM final from 10 mM stock), biotinylated polyGluTyr (10 μg/μL stock), γ-^33P ATP (10 μCi/μL stock) and water was added to each well (90 μL/well) of a Streptavidin Flashplate (Perkin Elmer, Wellesley, Mass.).
Test compound in 100% DMSO (2 μL) was added to the appropriate wells. Diluted GSTEGFR (1:300 dilution in 50 mM Tris at pH 8.0 and 0.1% bovine serum albumin) (10 μL) was added to the wells to initiate the reactions.
The plates were incubated at 30° C. for 1 hr with shaking. The reacted contents were removed and the plates were sequentially washed three times with a 1×PBS stop buffer (300 μL without Magnesium and Calcium) and 100 mM EDTA. After the final wash, the same stop buffer (200 μL) was added to the wells. The plates were then sealed and read on the TopCount scintillation counter.
Test compounds were assayed in triplicate at 16 concentrations at half-log dilutions starting at 200 uM. A maximum and minimum signal for the assay was determined on each plate. The percent inhibition of a test compound was calculated accord to the formula
For a series of test concentrations, the IC50 was derived by graphing percent inhibition against the log of the concentrations tested for a given compound. For those compounds without an IC50, the percent inhibition results are shown at a test concentration of 2 μM.

[3] = target: T3, HER-2 (Homo sapiens, UniProt P04626); assay: HER-2 Kinase Assay; settings: GST-HER2 kinase, 1 μM ATP
T3 construct: the nucleotides encoding amino acids 679 to 1255 of HER-2; HIS6 with thrombin site (N); purchased Proqinase (Freiburg, Germany)
T3 sequence (P04626 679-1255): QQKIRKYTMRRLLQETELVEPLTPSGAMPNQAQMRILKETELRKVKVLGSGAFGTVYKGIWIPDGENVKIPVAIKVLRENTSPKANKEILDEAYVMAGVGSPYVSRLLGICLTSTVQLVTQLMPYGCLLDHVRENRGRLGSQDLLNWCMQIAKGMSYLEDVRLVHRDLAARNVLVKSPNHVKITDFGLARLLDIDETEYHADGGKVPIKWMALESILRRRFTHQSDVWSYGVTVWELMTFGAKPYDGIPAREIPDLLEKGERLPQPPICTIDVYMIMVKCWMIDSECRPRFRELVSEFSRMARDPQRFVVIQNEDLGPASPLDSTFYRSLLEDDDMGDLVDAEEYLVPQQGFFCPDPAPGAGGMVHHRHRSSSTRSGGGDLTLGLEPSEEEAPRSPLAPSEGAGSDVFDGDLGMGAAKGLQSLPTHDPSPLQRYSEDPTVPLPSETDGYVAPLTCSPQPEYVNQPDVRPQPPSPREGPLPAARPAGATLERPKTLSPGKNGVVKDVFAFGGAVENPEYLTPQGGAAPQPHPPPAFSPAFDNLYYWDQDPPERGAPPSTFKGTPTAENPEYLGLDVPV
Protocol: The HER-2 kinase used was purified at Proqinase (Freiburg, Germany) from a construct that consisted of a fusion of GST (Glutathione-S-Transferase), HIS6-Thrombin and the nucleotides encoding amino acids 679 to 1255 of HER-2.
A mixture of a 10× kinase reaction buffer (600 mM Hepes at pH 7.5, 30 mM Magnesium Chloride, 0.03 mM Sodium Vanadate and 500 μg/mL PEG 20,000), DTT (1.2 mM final from a 10 mM stock), ATP (1 μM from a 10 mM stock), biotinylated polyGluTyr (1.5 ng/μL final from stock of 1 μg/μL prepared by Upstate Biotechnologies, Lake Placid, N.Y.), Manganese Chloride (3 mM final from a 1 M stock), γy-^33P-ATP (10 μCi/μL stock) and water (70 μL/well) was added to each well of a Streptavidin Flashplate (Cat. # SMP103, NEN, Boston, Mass.).
Test compound stock (1 μL) was added to the appropriate wells. Diluted GSTHER2 kinase (6.7 ng/μL diluted into 50 mM Tris-HCl at pH 8.0 and 0.1% bovine serum albumin) (30 μL) was added (total volume of 200 ng/well) to initiate the reactions.
The reaction plates were incubated at 30° C. for 1 hr. The reaction was terminated by aspirating the reaction mixture from the plate wells and washing the wells three times with a 1×PBS stop buffer (300 μL) and 100 mM EDTA. After the final wash, the same stop buffer (200 μL) was again added to the wells. The plates were then sealed and read on the TopCount scintillation counter.
The IC50 was derived according to the procedure described in Example 52. For those compounds without an IC50, the percent inhibition results are shown at a test concentration of 1 μM.

T1 sequence (P12931 whole entry): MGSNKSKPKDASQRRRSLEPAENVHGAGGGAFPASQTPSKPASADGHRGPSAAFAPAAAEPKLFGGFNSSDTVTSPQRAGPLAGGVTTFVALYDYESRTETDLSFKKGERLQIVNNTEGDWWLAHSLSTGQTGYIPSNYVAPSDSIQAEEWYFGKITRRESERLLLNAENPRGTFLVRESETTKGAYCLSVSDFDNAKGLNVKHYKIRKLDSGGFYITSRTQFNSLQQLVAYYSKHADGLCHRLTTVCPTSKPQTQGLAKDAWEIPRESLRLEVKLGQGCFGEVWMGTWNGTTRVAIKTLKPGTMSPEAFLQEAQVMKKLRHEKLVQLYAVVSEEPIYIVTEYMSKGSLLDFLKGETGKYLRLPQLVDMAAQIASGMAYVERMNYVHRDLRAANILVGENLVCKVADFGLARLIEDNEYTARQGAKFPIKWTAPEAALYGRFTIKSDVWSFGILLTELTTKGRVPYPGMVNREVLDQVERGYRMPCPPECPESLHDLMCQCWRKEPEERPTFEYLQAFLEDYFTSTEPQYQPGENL

pIC50 [1] | pIC50 [2] | inhibition at 1.6 µM [1] [%] | inhibition at 2 µM [2] [%] | pIC50 [3] | SMILES
6.84 |  |  |  |  | N#Cc1cnc2nc(Nc3ccc(CN4CCCC4)cc3)sc2c1Nc1c(Cl)ccc2c1OCO2 [Cpd 45, 7-(5-chloro-benzo[1,3]dioxol-4-ylamino)-2-(4-pyrrolidin-1-ylmethyl-phenylamino)-thiazolo[4,5-b]pyridine-6-carbonitrile]
 | 6.34 | 11 |  |  | COc1ccc(Cl)c(Nc2c(C#N)cnc3nc(Nc4ccc(OCC5CCCN(C)C5)cc4)sc23)c1 (centres unmarked) [Cpd 35, 7-(2-chloro-5-methoxy-phenylamino)-2-[4-(1-methyl-piperidin-3-ylmethoxy)-phenylamino]-thiazolo[4,5-b]pyridine-6-carbonitrile]
5.86 |  |  | 18 |  | COc1cc(Nc2nc3ncc(C#N)c(Nc4c(Cl)ccc5c4OCO5)c3s2)ccc1OCCN1CCOCC1 [Cpd 42, 7-(5-chloro-benzo[1,3]dioxol-4-ylamino)-2-[3-methoxy-4-(2-morpholin-4-yl-ethoxy)-phenylamino]-thiazolo[4,5-b]pyridine-6-carbonitrile]
7.10 |  |  | 44 |  | N#Cc1cnc2nc(Nc3ccc(CN4CCCCC4)cc3)sc2c1Nc1c(Cl)ccc2c1OCO2 [Cpd 41, 7-(5-chloro-benzo[1,3]dioxol-4-ylamino)-2-(4-piperidin-1-ylmethyl-phenylamino)-thiazolo[4,5-b]pyridine-6-carbonitrile]
6.90 |  |  | 47 |  | N#Cc1cnc2nc(Nc3ccc(CNC[C@H]4CCCO4)cc3)sc2c1Nc1c(Cl)ccc2c1OCO2 [Cpd 44, 7-(5-chloro-benzo[1,3]dioxol-4-ylamino)-2-[4-({[(2R)-tetrahydro-furan-2-ylmethyl]-amino}-methyl)-phenylamino]-thiazolo[4,5-b]pyridine-6-carbonitrile]
5.62 |  |  | 46 |  | CN1CCCC(COc2ccc(Nc3nc4ncc(C#N)c(Nc5c(Cl)ccc6c5OCO6)c4s3)cc2)C1 (centres unmarked) [Cpd 40, 7-(5-chloro-benzo[1,3]dioxol-4-ylamino)-2-[4-(1-methyl-piperidin-3-ylmethoxy)-phenylamino]-thiazolo[4,5-b]pyridine-6-carbonitrile]
 | 5.66 | 4 |  |  | CN1CCCC(COc2ccc(Nc3nc4ncc(C#N)c(Sc5cccc(Br)c5)c4s3)cc2)C1 (centres unmarked) [Cpd 38, 7-(3-bromo-phenylsulfanyl)-2-[4-(1-methyl-piperidin-3-ylmethoxy)-phenylamino]-thiazolo[4,5-b]pyridine-6-carbonitrile]
 | 5.06 | 4 |  |  | CN1CCCC(COc2ccc(Nc3nc4ncc(C#N)c(Oc5ccc(Cl)cc5Cl)c4s3)cc2)C1 (centres unmarked) [Cpd 36, 7-(2,4-dichloro-phenoxy)-2-[4-(1-methyl-piperidin-3-ylmethoxy)-phenylamino]-thiazolo[4,5-b]pyridine-6-carbonitrile]
 | 5.14 | 3 |  |  | CN1CCCC(COc2ccc(Nc3nc4ncc(C#N)c(Oc5cccc(OC(F)(F)F)c5)c4s3)cc2)C1 (centres unmarked) [Cpd 37, 2-[4-(1-methyl-piperidin-3-ylmethoxy)-phenylamino]-7-(3-trifluoromethoxy-phenoxy)-thiazolo[4,5-b]pyridine-6-carbonitrile]
< 4.00 |  |  | 4 |  | COc1cc(Nc2nc3ncc(C#N)c(Nc4c(Cl)ccc5c4OCO5)c3s2)ccc1OCC1CCCCO1 (centres unmarked) [Cpd 43, 7-(5-chloro-benzo[1,3]dioxol-4-ylamino)-2-[3-methoxy-4-(tetrahydro-pyran-2-ylmethoxy)-phenylamino]-thiazolo[4,5-b]pyridine-6-carbonitrile]
6.41 |  |  |  |  | CN1CCN(Cc2ccc(Nc3nc4ncc(C#N)c(Nc5c(Cl)ccc6c5OCO6)c4s3)cc2)CC1 [Cpd 46, 7-(5-chloro-benzo[1,3]dioxol-4-ylamino)-2-[4-(4-methyl-piperazin-1-ylmethyl)-phenylamino]-thiazolo[4,5-b]pyridine-6-carbonitrile]
 | 7.25 |  |  | 5.00 | C#Cc1cccc(Nc2c(C#N)cnc3nc(Nc4ccc(CN(C)C)cc4)sc23)c1 [Cpd 10, 2-(4-dimethylaminomethyl-phenylamino)-7-(3-ethynyl-phenylamino)thiazolo[4,5-b]pyridine-6-carbonitrile]
 | 7.40 |  |  | 4.34 | N#Cc1cnc2nc(Nc3ccc(CN4CCCC4)cc3)sc2c1Nc1ccc(F)c(Cl)c1 [Cpd 17, 7-(3-chloro-4-fluoro-phenylamino)-2-(4-pyrrolidin-1-ylmethyl-phenylamino)-thiazolo[4,5-b]pyridine-6-carbonitrile]
< 4.00 | 5.49 |  |  |  | CN1CCCC(COc2ccc(Nc3nc4ncc(C#N)c(Sc5ccc(F)cc5Cl)c4s3)cc2)C1 (centres unmarked) [Cpd 39, 7-(2-chloro-4-fluoro-phenylsulfanyl)-2-[4-(1-methyl-piperidin-3-ylmethoxy)-phenylamino]-thiazolo[4,5-b]pyridine-6-carbonitrile]
